Earlier results as cited in patent publication US12527979B2, “Treatment of HER3-mutated cancer by administration of anti-HER3 antibody-drug conjugate” (DAIICHI SANKYO COMPANY, LIMITED, priority 2018, dated 2026).
Like-named read-outs stand apart in the source and are kept apart here.

Key:
topoisomerase I = target: T1, topoisomerase I (Homo sapiens, UniProt P11387)
T1 sequence (P11387 1-765): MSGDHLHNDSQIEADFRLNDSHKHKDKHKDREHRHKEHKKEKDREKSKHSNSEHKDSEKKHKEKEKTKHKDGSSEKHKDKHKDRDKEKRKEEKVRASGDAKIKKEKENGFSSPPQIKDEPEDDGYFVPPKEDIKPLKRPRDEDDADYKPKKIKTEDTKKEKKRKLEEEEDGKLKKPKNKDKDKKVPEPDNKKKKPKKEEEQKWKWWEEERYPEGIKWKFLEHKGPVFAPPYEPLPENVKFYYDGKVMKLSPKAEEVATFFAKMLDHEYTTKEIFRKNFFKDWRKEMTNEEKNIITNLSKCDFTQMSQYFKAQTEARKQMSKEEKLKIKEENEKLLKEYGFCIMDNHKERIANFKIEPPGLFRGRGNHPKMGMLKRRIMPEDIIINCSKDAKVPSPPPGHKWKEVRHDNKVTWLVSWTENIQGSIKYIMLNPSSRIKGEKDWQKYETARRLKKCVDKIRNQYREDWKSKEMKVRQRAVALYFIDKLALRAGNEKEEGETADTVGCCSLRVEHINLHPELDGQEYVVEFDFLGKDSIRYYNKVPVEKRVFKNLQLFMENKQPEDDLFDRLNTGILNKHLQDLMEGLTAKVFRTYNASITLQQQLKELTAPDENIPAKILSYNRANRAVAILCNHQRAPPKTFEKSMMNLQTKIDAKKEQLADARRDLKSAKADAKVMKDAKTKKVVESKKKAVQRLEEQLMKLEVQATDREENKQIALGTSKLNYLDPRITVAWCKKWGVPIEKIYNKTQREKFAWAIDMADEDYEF

HER3-mutated cancers [1] = details: in vitro and in vivo, in situations where HER2 is overexpressed
HER3-mutated cancers [2] = details: clinical studies

SMILES: CC[C@@]1(O)C(=O)OCc2c1cc1n(c2=O)Cc2c-1nc1cc(F)c(C)c3c1c2[C@@H](NC(=O)CO)CC3
- topoisomerase I inhibitory effect (topoisomerase I): confirmed to have a topoisomerase I inhibitory effect

SMILES: CS(=O)(=O)CCNCc1ccc(-c2ccc3ncnc(Nc4ccc(OCc5cccc(F)c5)c(Cl)c4)c3c2)o1 [lapatinib]
- effectiveness against HER3-mutated cancers (HER3-mutated cancers [1]): exhibited effectiveness

SMILES: CCOc1cc2ncc(C#N)c(Nc3ccc(OCc4ccccn4)c(Cl)c3)c2cc1NC(=O)/C=C/CN(C)C [neratinib]
- effectiveness against HER3-mutated cancers (HER3-mutated cancers [2]): no effectiveness
